# In patent publication US20250339405A1, “a-SYNUCLEIN AGGREGATE BINDING AGENT AND IMAGING METHOD” (National Institutes for quantum and Radiological Science …, priority 2019, published 2025):
# Legend:
# [1] = target: T1, A53T mutant human α-synuclein (Homo sapiens, UniProt P37840, A53T); test: Inhibitory effect on α-synuclein aggregation (seeded, sarkosyl-insoluble fraction, CBB staining); type: biochemical; conditions: 37° C., 1 day
# T1 construct: made in house; host or cells: E. coli
# Method: First, A53T mutant human α-synuclein was expressed in and extracted from E. coli as a recombinant protein, and incubated in vitro to prepare α-synuclein aggregate seeds. To 0.02 μg of the α-synuclein aggregate seeds, C05-05 (in DMSO solution) was added at a final concentration of 20 μM, or 200 μM and stirred. An experiment in which only DMSO was added was conducted as a control experiment. These were suspended with 50 μL of A53T mutant human-synuclein monomer solution at a concentration of 1 mg/ml and then shaken at 37° C. for 1 day. Ten μL of the suspension was mixed with 90 μL of 1% sarkosyl and ultracentrifuged at 100 Krpm for 20 minutes, and a resulting precipitate was subjected to electrophoresis, followed by CBB staining of the gel. Images of the gels were obtained using an imager, and quantification of bands was carried out using analysis software (Image J).
# α-synuclein lesions [2] = target: T2, α-synuclein lesions (Mus musculus, UniProt O55042); test: In vivo two-photon laser scanning fluorescence microscopy of α-synuclein fibril-injected model mouse
# T2 construct: from tissue; host or cells: brain of C57BL/6 mice inoculated in the striatum with recombinant murine α-synuclein fibrils (made in E. coli)
# Method: Note that the α-synuclein aggregate was inoculated into the striatum of the mouse with the following manner. First, hair on the head of 9-week-old C57BL/6 male mouse anesthetized with 1.5% (v/v) isoflurane was removed, and the scalp was disinfected with isodine, followed by application of xylocaine and incision in the scalp to expose the skull. Then, a hole was drilled in the skull at a position of 0.05 mm posterior to the bregma and 2 mm lateral to the midline, and 3 μl of an α-synuclein fiber solution (murine α-synuclein fiber (4 mg/ml) in saline) was injected into a position […] ventral to the brain surface using a glass pipette, and then the scalp was returned and sutured.
# A model mouse was anesthetized with 1.5% (v/v) isoflurane 6 weeks after the injection of the α-synuclein fiber solution, and a cranial window was provided according to the Seylaz-Tomita method (Tomita et al. J Cereb Blood Flow Metab 25, 858-67, 2005). The mouse was anesthetized with 1.5% (v/v) isoflurane 2 weeks after the generation of the cranial window, and 50 μl of a solution of DMSO/physiological saline water=1:1 containing 0.05% of C05-05 or PBB3 was administered via the tail vein. The mouse was fixed under a two-photon laser fluorescence microscope 90 minutes after administration of C05-05 or 30 minutes after administration of PBB3, and 100 μl of a saline solution containing 5 mM of Sulforhodamine 101 was administered intraperitoneally, followed by intravital two-photon fluorescence imaging at an excitation wavelength of 900 nm. The detection wavelengths for C05-05 and PBB3 were set at 500 nm to 550 nm, and detection wavelengths for Sulforhodamine 101 were set at 573 nm to 648 nm.
# [3] = target: T3, α-synuclein aggregate formed in the brain of the DLB patient (Homo sapiens, UniProt P37840); test: In vitro fluorescence microscope measurement, DLB patient brain sections; type: binding; conditions: 30 μM compound, 50% ethanol, 30 minutes, room temperature, amygdala sections
# T3 construct: Postfixed fresh frozen sections of the amygdala tissue of the DLB patient; from tissue; host or cells: post-mortem human DLB amygdala, frozen sections
# From the text: Postmortem human brains were obtained from autopsies carried out with respect to a dementia with Lewy bodies (DLB) and Alzheimer's disease (AD) patients.
# A frozen DLB tissue was sliced with a thickness of 20 μm in a cryostat (HM560, Carl Zeiss).
# Postfixed fresh frozen sections of the amygdala tissue of the DLB patient and formalin fixed, paraffin embedded sections of a deparaffinized middle frontal gyrus tissue of the AD patient were used. Thirty μM of each of the above compounds and brain sections were incubated in a 50% ethanol solution for 30 minutes at room temperature. The sections were then washed twice, i.e., washed with a 50% ethanol solution for 5 minutes and with ultrapure water for 3 minutes. After mounting the sections using a mounting medium (VECTASHIELD H-1000, Vector Laboratories), images of lesion-enriched areas on the sections were obtained using a fluorescence microscope (DM4000, Leica). Analysis software (Image J) was used to quantify the fluorescence of lesion-enriched and lesion-free (background) areas.
# α-synuclein lesions [4] = target: T2, α-synuclein lesions; test: Ex vivo imaging of α-synuclein fibril-injected model mouse brain; type: in vivo
# Method: A model mouse at 6 weeks after the injection of the α-synuclein fiber solution was anesthetized with 1.5% (v/v) isoflurane in a manner similar to that described in “(Preparation of α-synuclein fibril-injected mouse model)” above, and C05-05 (1.66 mg/kg) or BF-227 (1.66 mg/kg) was intraperitoneally administered.
# The brains were collected and frozen 90 minutes after the administration of C05-05 (or 120 minutes after the administration of BF-227), and frozen sections with the thickness of 20 μm were prepared in a cryostat (HM560). After mounting the sections using a mounting medium (VECTASHIELD H-1000), images of α-synuclein aggregate-enriched areas on the sections were obtained using a fluorescence microscope (DM4000).
# Moreover, the same sections were immersed and fixed overnight in a phosphate buffer solution containing 4% paraformaldehyde. The brain after fixation was washed under running water and then treated with an autoclave for the antigen retrieval. Immunohistochemical staining with an anti-phosphorylated α-synuclein monoclonal antibody (pS129, abcam, ab59264) (1:1000) was carried out, and after mounting the sections using a mounting medium (VECTASHIELD H-1000), images of the same areas were obtained using the fluorescence microscope (DM4000). FIG. 7(a) contains images showing the case where C05-05 was administered, and FIG. 7(b) is images showing the case where BF-227 was administered.
# [5] = target: T4, lesion composed of the phosphorylated α-synuclein (Mus musculus, UniProt O55042); test: In vitro fluorescence microscope measurement, α-synuclein fibril-injected mouse brain sections; type: binding; conditions: 30 μM, 20% ethanol, 30 minutes, room temperature
# T4 construct: from tissue; host or cells: brain of C57BL/6 mice inoculated in the striatum with recombinant murine α-synuclein fibrils (made in E. coli)
# Method: First, murine α-synuclein was expressed in and extracted from E. coli as a recombinant protein, and incubated in vitro to form an insoluble α-synuclein aggregate.
# Note that the α-synuclein aggregate was inoculated into the striatum of the mouse with the following manner. First, hair on the head of 9-week-old C57BL/6 male mouse anesthetized with 1.5% (v/v) isoflurane was removed, and the scalp was disinfected with isodine, followed by application of xylocaine and incision in the scalp to expose the skull. […]
# The brain of the α-synuclein fibril-injected mouse was extracted, sectioned, and analyzed by fluorescent staining. […] After mounting the sections using a mounting medium (VECTASHIELD H-1000), images of α-synuclein aggregate-enriched areas on the sections were obtained using a fluorescence microscope (DM4000). […] Immunohistochemical staining with an anti-phosphorylated α-synuclein monoclonal antibody (pS129, abcam, ab59264) (1:1000) was carried out, and after mounting the sections using a mounting medium (VECTASHIELD H-1000), images of the same areas were obtained using the fluorescence microscope (DM4000).
smiles,measurement,setting,value
"CNc1ccc(C#C/C=C/c2nc3ccc(OCC(O)CF)cc3s2)cn1 (stereo not shown) [C05-05, (E)-1-fluoro-3-(2-(4-(6-(methylamino)pyridin-3-yl)but-1-en-3-ynyl)benzo[d]thiazol-6-yloxy)propan-2-ol]",reduction of formation of insoluble α-synuclein aggregate compared with control experiment (DMSO),[1]; final concentration 20 μM,approximately 20%
same,reduction of formation of insoluble α-synuclein aggregate compared with control experiment (DMSO),[1]; final concentration 200 μM,approximately 60%
same,contrast in detecting lesions relative to PBB3,α-synuclein lesions [2]; intravital two-photon imaging,higher contrast than PBB3
same,detection of α-synuclein lesions by intravital two-photon fluorescence imaging,"α-synuclein lesions [2]; tail vein, 50 μl of 0.05% solution, 90 minutes after C05-05 or 30 minutes after PBB3",bound to individual α-synuclein lesions
same,entry into the brain after intravenous injection,"α-synuclein lesions [2]; tail vein, model mouse",entered the brain of the living body
same,"binding to the α-synuclein aggregate formed in the brain of the DLB patient, reactivity relative to PBB3",[3],reactivity equal to or greater than that of PBB3
same,entry into the brain (ex vivo imaging),"α-synuclein lesions [4]; 1.66 mg/kg, model mouse",entered the brain
same,detection of α-synuclein lesions by ex vivo imaging,"α-synuclein lesions [4]; 1.66 mg/kg, brains collected 90 minutes after C05-05 or 120 minutes after BF-227",bound to individual α-synuclein lesions
same,contrast in detecting lesions relative to BF-227,α-synuclein lesions [4]; ex vivo imaging,higher contrast than BF-227
same,binding to phosphorylated α-synuclein lesion (co-staining with pS129 antibody),[5],binds to the lesion composed of the phosphorylated α-synuclein
